Data published in patent publication US12577238B2, “Compositions and methods for modulating inflammatory and degenerative disorder” (University of Southern California, priority 2018, dated 2026).
Entries after “also recorded” stand apart in the source; their conditions may differ.

Tests used:
OSMR and gp130 = target: T1, OSMR and gp130 (Homo sapiens, UniProt P40189); experiment: Receptor competition, gp130-Flag pull-down, OSMR; type: cell-based; conditions: in the presence of OSM; IP-FLAG, WB-OSMR
T1 construct: FLAG; expressed in transfected cells; host or cells: adult human chondrocytes
T1 sequence (P40189 23-918): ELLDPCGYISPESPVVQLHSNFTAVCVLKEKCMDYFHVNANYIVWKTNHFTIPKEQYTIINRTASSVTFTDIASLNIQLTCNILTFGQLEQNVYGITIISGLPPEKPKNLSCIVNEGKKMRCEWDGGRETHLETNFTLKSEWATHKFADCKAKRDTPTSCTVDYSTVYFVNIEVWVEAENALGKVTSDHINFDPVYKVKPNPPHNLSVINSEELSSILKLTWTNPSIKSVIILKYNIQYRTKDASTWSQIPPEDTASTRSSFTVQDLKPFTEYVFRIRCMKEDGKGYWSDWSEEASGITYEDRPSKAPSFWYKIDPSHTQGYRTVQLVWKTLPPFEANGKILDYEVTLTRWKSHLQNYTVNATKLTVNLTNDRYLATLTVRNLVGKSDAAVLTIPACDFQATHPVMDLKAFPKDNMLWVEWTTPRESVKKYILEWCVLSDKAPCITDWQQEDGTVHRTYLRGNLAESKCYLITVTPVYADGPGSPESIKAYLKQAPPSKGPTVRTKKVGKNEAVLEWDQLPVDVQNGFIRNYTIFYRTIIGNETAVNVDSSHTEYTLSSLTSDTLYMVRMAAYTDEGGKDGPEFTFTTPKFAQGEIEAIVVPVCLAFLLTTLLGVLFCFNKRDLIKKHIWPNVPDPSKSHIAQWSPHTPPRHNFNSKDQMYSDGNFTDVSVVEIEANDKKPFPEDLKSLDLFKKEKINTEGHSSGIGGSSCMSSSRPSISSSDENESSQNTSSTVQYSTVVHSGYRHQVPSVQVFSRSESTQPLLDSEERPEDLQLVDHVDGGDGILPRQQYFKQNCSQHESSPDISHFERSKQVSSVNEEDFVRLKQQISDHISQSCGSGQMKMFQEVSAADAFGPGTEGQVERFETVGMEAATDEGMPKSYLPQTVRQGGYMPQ
Procedure: Adult human chondrocytes transfected with gp130-Flag were incubated with various concentrations of RCGD 423 in the presence of IL-6 or OSM; levels of immoprecipitated IL-6R or OSMR were used to calculate the dissociation constant (Kd).
Adult human chondrocytes; IP-FLAG AB (transfected with gp130 FLAG plasmid), WB-OSMR.
This property would be of great interest due to the pro-inflammatory and pro-catabolic effects of these cytokines in the joint space. […] To assess whether RCGD 423 could directly compete for gp130 occupancy, human adult articular chondrocytes were transfected with tagged gp130 and then pulled down associated proteins±RCGD 423 and/or IL-6.

[1] = system: adult pig articular chondrocytes; experiment: Proteins mediating pro-inflammatory signals with or without OSM; type: cell-based
Description: (§1) Firstly, RCGD 423 was a hit from a library; this made the depth of the discovery surrounding the technology less comprehensive. Additionally, the physical properties of RCGD 423 (solubility, potency, functional groups) could be improved. Significant gains in these areas could potentially result in a first-in-class injectable for the treatment of post-traumatic OA. Moreover, the potential risks associated with promoting MYC stabilization and proliferation in gp130^+ cells as well as large increases in active STAT3 protein was of concern. […] These compounds were then screened in adult pig articular chondrocytes and cartilage explants, seeking compounds that could inhibit the catabolic effects of OSM but not drive increases in MYC and pSTAT3 protein levels. […] Together, these preliminary data identify CX-011 (B8) as a highly anti-inflammatory, anti-catabolic alternative to RCGD 423, with increased “drug-like” properties and reduced potential molecular liabilities.

[2] = system: pig articular cartilage explants; experiment: Matrix degradation assay, OSM-driven, pig articular cartilage explants; type: cell-based
Procedure: FIG. 22A-C show matrix degradation assays.
72 hour exposure to the drug and OSM. […] Effect is concentration dependent and increases with increase in drug concentration.
as §1

gp130 [3] = target: T2, gp130 (Homo sapiens, UniProt P40189); experiment: OSM-mediated activation of gp130 in adult human articular chondrocytes; type: cell-based; conditions: three independent donors
T2 construct: endogenous in cells; host or cells: adult human articular chondrocytes (three donors)
T2 sequence (P40189 23-918): T1 sequence (P40189 23-918)
Description: 423F is the positive control drug. Adult human articular chondrocytes from three independent donors were used to generate the results.
Adult human articular chondrocytes from three independent donors were used to generate the results.
Adult human articular chondrocytes from three independent donors were used.

gp130 [4] = target: T3, gp130 (Rattus norvegicus, UniProt P40190); experiment: CFA-induced systemic inflammatory response in rats, intraarticular drug; type: in vivo
T3 construct: from tissue; host or cells: rat knee joint in vivo (Sprague-Dawley wild-type in the CFA model)
T3 sequence (P40190 23-918): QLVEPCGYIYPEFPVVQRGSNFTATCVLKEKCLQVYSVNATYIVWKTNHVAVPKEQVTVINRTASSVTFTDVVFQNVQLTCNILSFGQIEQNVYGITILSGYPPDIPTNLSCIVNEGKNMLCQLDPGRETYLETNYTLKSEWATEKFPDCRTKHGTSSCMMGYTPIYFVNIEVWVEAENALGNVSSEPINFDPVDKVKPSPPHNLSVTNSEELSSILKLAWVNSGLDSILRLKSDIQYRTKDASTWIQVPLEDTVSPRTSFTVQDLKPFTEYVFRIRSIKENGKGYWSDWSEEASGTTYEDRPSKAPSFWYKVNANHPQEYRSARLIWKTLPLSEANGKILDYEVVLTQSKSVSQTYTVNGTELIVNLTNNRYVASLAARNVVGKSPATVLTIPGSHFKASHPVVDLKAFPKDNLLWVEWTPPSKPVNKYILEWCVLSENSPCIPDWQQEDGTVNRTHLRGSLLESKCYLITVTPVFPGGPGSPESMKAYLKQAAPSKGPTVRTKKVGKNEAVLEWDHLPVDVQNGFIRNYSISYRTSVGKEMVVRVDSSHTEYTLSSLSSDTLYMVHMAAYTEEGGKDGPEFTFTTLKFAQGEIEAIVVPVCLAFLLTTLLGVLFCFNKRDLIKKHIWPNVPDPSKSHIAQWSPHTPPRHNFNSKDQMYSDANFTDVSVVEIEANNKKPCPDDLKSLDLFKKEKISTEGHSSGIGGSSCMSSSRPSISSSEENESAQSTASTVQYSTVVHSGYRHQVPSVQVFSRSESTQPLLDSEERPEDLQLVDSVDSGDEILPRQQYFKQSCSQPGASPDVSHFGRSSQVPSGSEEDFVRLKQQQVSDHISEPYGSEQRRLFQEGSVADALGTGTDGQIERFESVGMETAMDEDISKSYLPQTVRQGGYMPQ
Procedure: Rat (Sprague-Dawley wild-type) were injected with Complete Freund's Adjuvant (CFA) to induce systemic inflammatory response. Drug (805) was injected intraarticularly; multiple doses (A and B, N=3).

adult synovial cells = experiment: OSM-mediated cytokine secretion by adult synovial cells; type: cell-based; conditions: 10 μM
Procedure: Adult synovial cells from three independent donors were used. Molecule 805 was used at 10 μM.

[5] = Oral single dose, synovial inflammation in rat joints; type: in vivo; conditions: oral administration of a single dose
[6] = Medial meniscal tear surgery, intra-articular injection; type: in vivo; conditions: following medial meniscal tear surgery
[7] = Survival of NZM.2328 female mice (lupus nephritis-like syndrome); type: in vivo; conditions: intraperitoneally twice weekly, 10 mg/kg

For `Cc1ccc(-c2csc(NC(=O)c3ccccn3)n2)cc1` [B805], the “competition with OSMR for gp130 occupancy / OSMR-gp130 interaction” value (OSMR and gp130) was “disrupts the interaction between OSMR and gp130 in a concentration-dependent manner”, the “increases in proteins mediating pro-inflammatory signals” value ([1]; in the presence of OSM) was “strongly inhibits increases in these proteins in the presence of OSM” and the “endogenous levels of proteins mediating pro-inflammatory signals” value ([1]; without OSM) was “little effect”. For the same compound, the “breakdown of collagen and aggrecan (aggrecan-neo, collagen-neo epitopes)” value ([2]; driven by OSM) was “strongly prevent the breakdown of collagen and aggrecan; also recorded: prevents the breakdown of collagen and aggrecan”, the “increase in catalytic enzymes / induction of proteolytic gene expression” value ([2]; driven by OSM) was “prevents” and the “breakdown of collagen and aggrecan (aggrecan-neo, collagen-neo epitopes)” value ([2]; fresh pig cartilage explants, 72 hour exposure to drug and OSM) was “strongly prevents the breakdown of collagen and aggrecan”. For the same compound, the “OSM-mediated activation of downstream effector JAK2” value (gp130 [3]) was “strongly inhibits”, the “OSM-mediated activation of gp130” value (gp130 [3]) was “inhibit OSM-mediated activation of gp130; also recorded: strongly inhibits OSM-mediated activation of gp130” and the “activation of gp130 in sick animals” value (gp130 [4]) was “prolonged effect preventing activation gp130 in sick animals”. For the same compound, the “inflammatory response in vivo” value (gp130 [4]; multiple doses, N=3) was “inhibits inflammatory response in vivo in a dose-dependent manner”, the “OSM-mediated secretion of IL-6” value (adult synovial cells) was “strongly inhibits” and the “OSM-mediated secretion of TNF-α” value (adult synovial cells) was “strongly inhibits”. For the same compound, the synovial inflammation [5] was “reduced synovial inflammation in rat joints”, the cartilage degeneration [6] was “reduces cartilage degeneration” and the survival [7] was “survive longer”.
